According to PubChem BioAssay AID248 (DTP/NCI, 2004):
Toxic doses and inconclusive results are not listed. No stated cut-off is given here; in the data, active means T/C of 150% or more; inactive means T/C below 125%.

Tested on: L1210 leukemia ip in BDF1 mice, survival T/C
Experiment: NCI In Vivo Anticancer Drug Screen. Data for tumor model L1210 Leukemia (intraperitoneal) in B6D2F1 (BDF1) mice
Settings: higher = longer survival
Outline: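 Each compound was tested against a transplantable tumor grown in mice. The endpoint was survival, with treated animals benchmarked against vehicle controls as a simple ratio.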

[1] = endpoint: mean survival time, dose: 100.0 mg/kg/injection, schedule: Q04DX003 (ip), vehicle: saline
[2] = endpoint: mean survival time, dose: 200.0 mg/kg/injection, schedule: Q04DX003 (ip), vehicle: saline
[3] = endpoint: mean survival time, dose: 400.0 mg/kg/injection, schedule: Q04DX003 (ip), vehicle: saline
[4] = endpoint: mean survival time, dose: 50.0 mg/kg/injection, schedule: Q01DX001 (ip), vehicle: carboxymethylcellulose (CMC)
[5] = endpoint: mean survival time, dose: 100.0 mg/kg/injection, schedule: Q01DX001 (ip), vehicle: carboxymethylcellulose (CMC)

Measured: T/C

O=CC(O)CO (stereo not drawn)
inactive: endpoint: mean survival time, dose: 62.5 mg/kg/injection, schedule: Q01DX009 (ip), vehicle: carboxymethylcellulose (CMC) 102 % of control | endpoint: mean survival time, dose: 108.0 mg/kg/injection, schedule: Q01DX Z (ip), vehicle: other 95 % of control | endpoint: mean survival time, dose: 125.0 mg/kg/injection, schedule: Q01DX001 (ip), vehicle: carboxymethylcellulose (CMC) 98 % of control | endpoint: mean survival time, dose: 125.0 mg/kg/injection, schedule: Q01DX009 (ip), vehicle: carboxymethylcellulose (CMC) 116 % of control | endpoint: mean survival time, dose: 180.0 mg/kg/injection, schedule: Q01DX Z (ip), vehicle: other 112 % of control | endpoint: mean survival time, dose: 250.0 mg/kg/injection, schedule: Q01DX001 (ip), vehicle: carboxymethylcellulose (CMC) 105 % of control | endpoint: mean survival time, dose: 250.0 mg/kg/injection, schedule: Q01DX009 (ip), vehicle: carboxymethylcellulose (CMC) 116 % of control | endpoint: mean survival time, dose: 300.0 mg/kg/injection, schedule: Q01DX Z (ip), vehicle: other 113 % of control | endpoint: mean survival time, dose: 500.0 mg/kg/injection, schedule: Q01DX001 (ip), vehicle: carboxymethylcellulose (CMC) 100 % of control | endpoint: mean survival time, dose: 500.0 mg/kg/injection, schedule: Q01DX009 (ip), vehicle: carboxymethylcellulose (CMC) 118 % of control | endpoint: mean survival time, dose: 500.0 mg/kg/injection, schedule: Q01DX Z (ip), vehicle: other 115 % of control | endpoint: mean survival time, dose: 833.0 mg/kg/injection, schedule: Q01DX Z (ip), vehicle: other 114 % of control | endpoint: mean survival time, dose: 1000.0 mg/kg/injection, schedule: Q01DX001 (ip), vehicle: carboxymethylcellulose (CMC) 110 % of control | endpoint: median survival time, dose: 352.0 mg/kg/injection, schedule: Q01DX005 (ip), vehicle: saline sonified 122 % of control | endpoint: median survival time, dose: 440.0 mg/kg/injection, schedule: Q01DX005 (ip), vehicle: other 118 % of control | endpoint: median survival time, dose: 440.0 mg/kg/injection, schedule: Q01DX005 (ip), vehicle: saline sonified 116 % of control | endpoint: median survival time, dose: 550.0 mg/kg/injection, schedule: Q01DX005 (ip), vehicle: saline sonified 122 % of control | endpoint: median survival time, dose: 688.0 mg/kg/injection, schedule: Q01DX005 (ip), vehicle: other 107 % of control | endpoint: median survival time, dose: 688.0 mg/kg/injection, schedule: Q01DX005 (ip), vehicle: saline sonified 111 % of control | endpoint: median survival time, dose: 860.0 mg/kg/injection, schedule: Q01DX005 (ip), vehicle: other 51 % of control | endpoint: median survival time, dose: 1053.0 mg/kg/injection, schedule: Q01DX001 (ip), vehicle: other 119 % of control | endpoint: median survival time, dose: 1053.0 mg/kg/injection, schedule: Q01DX001 (ip), vehicle: saline sonified 122 % of control | endpoint: median survival time, dose: 1170.0 mg/kg/injection, schedule: Q01DX001 (ip), vehicle: other 117 % of control | endpoint: median survival time, dose: 1170.0 mg/kg/injection, schedule: Q01DX001 (ip), vehicle: saline sonified 122 % of control | endpoint: median survival time, dose: 1300.0 mg/kg/injection, schedule: Q01DX001 (ip), vehicle: other 117 % of control | endpoint: median survival time, dose: 1300.0 mg/kg/injection, schedule: Q01DX001 (ip), vehicle: saline sonified 122 % of control | endpoint: median survival time, dose: 1444.0 mg/kg/injection, schedule: Q01DX001 (ip), vehicle: other 121 % of control | endpoint: median survival time, dose: 1444.0 mg/kg/injection, schedule: Q01DX001 (ip), vehicle: saline sonified 122 % of control | endpoint: median survival time, dose: 1604.0 mg/kg/injection, schedule: Q01DX001 (ip), vehicle: other 51 % of control | endpoint: median survival time, dose: 1782.0 mg/kg/injection, schedule: Q01DX001 (ip), vehicle: other 75 % of control

CCOC(=O)NC(C)(C)CN(C(=O)OCC)C(C)(C)CO
inactive: [1] 104 % of control | [2] 104 % of control

C1=C(C2=CCCCC2)CCCC1
inactive: endpoint: mean survival time, dose: 100.0 mg/kg/injection, schedule: Q01DX009 (ip), vehicle: acetone 108 % of control | [1] 112 % of control | endpoint: mean survival time, dose: 200.0 mg/kg/injection, schedule: Q01DX009 (ip), vehicle: acetone 100 % of control | [2] 104 % of control | endpoint: mean survival time, dose: 400.0 mg/kg/injection, schedule: Q01DX009 (ip), vehicle: acetone 108 % of control | [3] 96 % of control

O=C1NC(=S)S/C1=C/c1ccc(/C=C2/SC(=S)NC2=O)cc1
inactive: [4] 92 % of control | [5] 94 % of control

Cc1c(C(=O)NN)sc2ccccc12
inactive: endpoint: mean survival time, dose: 5.0 mg/kg/injection, schedule: Q01DX001 (ip), vehicle: saline 100 % of control | endpoint: mean survival time, dose: 10.0 mg/kg/injection, schedule: Q01DX001 (ip), vehicle: saline 97 % of control | endpoint: mean survival time, dose: 20.0 mg/kg/injection, schedule: Q01DX001 (ip), vehicle: saline 100 % of control | endpoint: mean survival time, dose: 40.0 mg/kg/injection, schedule: Q01DX001 (ip), vehicle: saline 97 % of control | endpoint: mean survival time, dose: 80.0 mg/kg/injection, schedule: Q01DX001 (ip), vehicle: saline 94 % of control

Nc1ncnc2nc(-c3cccc(OCCCOc4ccccc4)c3)[nH]c12
inactive: endpoint: mean survival time, dose: 75.0 mg/kg/injection, schedule: Q01DX001 (ip), vehicle: gum acacia 95 % of control | endpoint: mean survival time, dose: 150.0 mg/kg/injection, schedule: Q01DX001 (ip), vehicle: gum acacia 93 % of control | endpoint: mean survival time, dose: 300.0 mg/kg/injection, schedule: Q01DX001 (ip), vehicle: gum acacia 91 % of control

O=C1OCC/C1=C/OC(=O)c1ccccc1
inactive: endpoint: mean survival time, dose: 100.0 mg/kg/injection, schedule: Q04DX002 (ip), vehicle: Klucel (hydroxypropylcellulose) (HPC) 97 % of control | endpoint: mean survival time, dose: 200.0 mg/kg/injection, schedule: Q04DX002 (ip), vehicle: Klucel (hydroxypropylcellulose) (HPC) 87 % of control

C/C(=C(/CCO)SCCC(=O)c1ccc(C)cc1)N(C=O)Cc1cnc(C)nc1N
inactive: [1] 97 % of control | [2] 97 % of control | [3] 93 % of control

CC1C(=O)OCC1C(c1ccccc1)(c1ccccc1)c1ccccc1 (stereo not drawn)
inactive: endpoint: mean survival time, dose: 100.0 mg/kg/injection, schedule: Q04DX002 (ip), vehicle: gum acacia 100 % of control | endpoint: mean survival time, dose: 200.0 mg/kg/injection, schedule: Q04DX002 (ip), vehicle: gum acacia 103 % of control | endpoint: mean survival time, dose: 400.0 mg/kg/injection, schedule: Q04DX002 (ip), vehicle: gum acacia 89 % of control

Cc1ccc2c(c1)c(C)c(C)c(=O)n2C
inactive: endpoint: mean survival time, dose: 100.0 mg/kg/injection, schedule: Q01DX001 (ip), vehicle: saline 98 % of control | endpoint: mean survival time, dose: 200.0 mg/kg/injection, schedule: Q01DX001 (ip), vehicle: saline 93 % of control | endpoint: mean survival time, dose: 400.0 mg/kg/injection, schedule: Q01DX001 (ip), vehicle: saline 96 % of control

CC1(C)C2CCC(O)(C(=O)O)C1C2 (stereo not drawn)
inactive: [4] 106 % of control | [5] 91 % of control | endpoint: mean survival time, dose: 200.0 mg/kg/injection, schedule: Q01DX001 (ip), vehicle: carboxymethylcellulose (CMC) 91 % of control | endpoint: mean survival time, dose: 400.0 mg/kg/injection, schedule: Q01DX001 (ip), vehicle: carboxymethylcellulose (CMC) 100 % of control
